Data from ChEMBL document CHEMBL1130188, “Synthesis and stereochemical structure-activity relationships of 1,3-dioxoperhydropyrido[1,2-c]pyrimidine derivatives: potent and selective cholecystokinin-A receptor antagonists” (J Med Chem, 1997).

Columns and labels:
[1] = biological target: T1, Gastrin/cholecystokinin type B receptor (Rattus norvegicus, UniProt P30553); experiment: Inhibition of [3H]- pCCK-8 binding to Cholecystokinin type B receptor of rat cerebral cortex membranes; format: cell membranes, Membrane
T1 sequence (P30553 whole entry): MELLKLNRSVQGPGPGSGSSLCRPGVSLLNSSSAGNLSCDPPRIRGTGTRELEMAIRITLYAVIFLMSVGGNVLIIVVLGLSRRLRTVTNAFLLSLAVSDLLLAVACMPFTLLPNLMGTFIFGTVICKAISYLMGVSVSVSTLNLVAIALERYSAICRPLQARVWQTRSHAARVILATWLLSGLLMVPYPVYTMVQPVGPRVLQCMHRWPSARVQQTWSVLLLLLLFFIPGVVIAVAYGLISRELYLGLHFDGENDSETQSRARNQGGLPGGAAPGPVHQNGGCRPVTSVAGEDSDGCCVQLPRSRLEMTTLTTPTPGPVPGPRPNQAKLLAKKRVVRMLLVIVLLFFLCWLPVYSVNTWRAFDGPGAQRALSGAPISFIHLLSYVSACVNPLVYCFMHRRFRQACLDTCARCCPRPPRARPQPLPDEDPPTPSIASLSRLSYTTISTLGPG

[2] = biological target: T2, Cholecystokinin receptor type A (Rattus norvegicus, UniProt P30551); experiment: Inhibition of [3H]pCCK-8 specific binding to Cholecystokinin type A receptor of rat pancreas
T2 sequence (P30551 whole entry): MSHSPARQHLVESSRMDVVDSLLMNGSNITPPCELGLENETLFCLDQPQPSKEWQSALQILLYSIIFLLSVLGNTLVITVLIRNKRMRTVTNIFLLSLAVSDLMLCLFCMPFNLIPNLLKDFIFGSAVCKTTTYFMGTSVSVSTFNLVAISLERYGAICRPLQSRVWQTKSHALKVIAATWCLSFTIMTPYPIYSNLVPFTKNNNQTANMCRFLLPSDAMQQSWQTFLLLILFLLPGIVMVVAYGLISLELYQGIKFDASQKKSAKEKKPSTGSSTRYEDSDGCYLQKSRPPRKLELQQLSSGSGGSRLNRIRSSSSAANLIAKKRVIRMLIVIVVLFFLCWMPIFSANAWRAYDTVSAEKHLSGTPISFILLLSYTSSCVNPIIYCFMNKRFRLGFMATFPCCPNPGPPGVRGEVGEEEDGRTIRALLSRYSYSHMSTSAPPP

Rattus norvegicus = species: Rattus norvegicus; experiment: Compound was tested for inhibition of amylase release stimulated by CCK-8 (0.5 nM) in dispersed pancreatic acini.

Row | Ki [1] | Ki [2] | Structure (SMILES) | IC50 (Rattus norvegicus)
1 | 1.89 µM | > 5 µM | CC(C)(C)OC(=O)N[C@H](Cc1c[nH]c2ccccc12)C(=O)N[C@@H]1CCCN2C(=O)N(Cc3ccccc3)C(=O)C[C@@H]12 | 
2 | > 5 µM | 0.572 µM | CC(C)(C)OC(=O)N[C@@H](Cc1c[nH]c2ccccc12)C(=O)N[C@H]1CCCN2C(=O)N(Cc3ccccc3)C(=O)C[C@H]12 | 
3 | 2.73 µM | 0.0106 µM | CC(C)(C)OC(=O)N[C@@H](Cc1c[nH]c2ccccc12)C(=O)N[C@@H]1CCCN2C(=O)N(Cc3ccccc3)C(=O)C[C@H]12 | 0.201 µM
4 | > 5 µM | 0.00062 µM | CC(C)(C)OC(=O)N[C@@H](Cc1c[nH]c2ccccc12)C(=O)N[C@H]1CCCN2C(=O)N(Cc3ccccc3)C(=O)C[C@@H]12 | 0.0213 µM

The remaining lines, values behind:

Row | Structure (SMILES) | Ki [1] | Ki [2] | IC50 (Rattus norvegicus)
5 | CC(C)(C)OC(=O)N[C@H](Cc1c[nH]c2ccccc12)C(=O)N[C@H]1CCCN2C(=O)N(Cc3ccccc3)C(=O)C[C@@H]12 | > 5 µM | 0.298 µM | 
6 | COC(=O)[C@@]1(Cc2ccccc2)C[C@@H]2[C@@H](NC(=O)[C@H](Cc3c[nH]c4ccccc34)NC(=O)OC(C)(C)C)CCCN2C1=O | > 5 µM |  | 
7 | CN1C(=O)[C@H](NC(=O)c2cc3ccccc3[nH]2)N=C(c2ccccc2)c2ccccc21 |  |  | 0.0254 µM
8 | CC(C)(C)OC(=O)N[C@@H](Cc1c[nH]c2ccccc12)C(=O)N[C@@H]1CCCN2C(=O)N(Cc3ccccc3)C(=O)C[C@@H]12 [IQM-95333] | 2.91 µM | 2.89 µM | 
9 | CC(C)(C)OC(=O)N[C@H](Cc1c[nH]c2ccccc12)C(=O)N[C@@H]1CCCN2C(=O)N(Cc3ccccc3)C(=O)C[C@H]12 | > 5 µM |  | 
10 | COC(=O)[C@]1(Cc2ccccc2)C[C@@H]2[C@@H](NC(=O)[C@@H](Cc3c[nH]c4ccccc34)NC(=O)OC(C)(C)C)CCCN2C1=O | 1.56 µM | > 5 µM | 
11 | CC(C)(C)OC(=O)N[C@H](Cc1c[nH]c2ccccc12)C(=O)N[C@H]1CCCN2C(=O)N(Cc3ccccc3)C(=O)C[C@H]12 | > 5 µM | > 5 µM | 
